Laboratory results taken from patent US10660789B2, “1,4-dihydropyridine derivatives with HSP modulating activity” (Richter Gedeon NYRT., priority 2011, dated 2020).
Where a name gives a salt, the structure may show the parent alone.

tested on: other Hsps; test: Other in vitro HSP modulating effects (Table 3); assay type: cell-based, mouse and human; set-up: key: +: co-inducing activity; −: silencing activity; 0: with the experimental methods applied no other HSP modulating effects could be identified
Procedure: The Hsp co-inducing effect of the compounds on stress response was tested on B16 mouse melanoma and SHSY5Y human neuroblastoma cell lines stably transfected with Hsp promoter probing plasmids. This kind of promoter probing, using the promoter region of a given gene conjugated with fluorescent protein is used as a best and fastest test system for finding drugs which modulate the activity of the gene followed by the given promoter (Wyshocka et al., Mol. Cel. Biochem. 215:153-156, 2000).
Reporter plasmids, containing the Hsp70 and/or Hsp25 promoter conjugated to either YFP or GFP (yellow or green fluorescent protein), were stably transfected into the cells and the expression of YFP or GFP was followed by flow cytometry. Cells were either kept at 37° C. or exposed to heat shock at 42° C. for 1 hour followed by a 16 hour recovery period at 37° C. in the presence or absence of different concentrations of the test compound. After recovery the expression of YFP or GFP which is in straight correlation with the promoter activity of Hsp70 or Hsp27 genes was followed by measuring the fluorescence intensity of the cells by flow cytometry. Fluorescence intensity is in straight correlation with the amount of fluorescent protein (GFP or YFP) produced under the control of hsp promoter. The mean fluorescence intensity of YFP or GFP produced is shown as “Hsp promoter activity”.
Cells were homogenously distributed on 6-well plates in 1×10^5 cells/well density. B16-pHsp25-GFP and B16-pHsp70-YFP melanoma cells were grown in RPMI-1640 medium supplemented with 10% Fetal bovine serum (FBS), penicillin (200 units/ml), streptomycin (200 μg/ml) and 2 mM L-Glutamine. For maintaining the SH-SY5Y-pHsp25-GFP and SH-SY5YpHsp70-YFP neuroblastoma cell lines Dulbecco's modified Eagle's medium (DMEM-F-12) containing 10% FBS, 2 mM L-Glutamine, penicillin (200 units/ml), streptomycin (200 μg/ml) and MEM non-essential amino acids were used. Before the treatments both cell lines were incubated at 37° C. in a saturated humidity atmosphere containing 95% air and 5% CO2. After 24 h incubation cells were pretreated with compounds of the invention in four different concentrations (usually in 3; 10; 20 and 50 μM) 30 min before the heat shock at 42° C. for 1 h and then incubated further at 37° C. for 16 h (recovery period). After this procedure cells were trypsinized and suspensed in 500 μl serum-free DMEM-F12 medium. The changes in cells' fluorescence were detected using BD FACSCalibur flow cytometer.
SY-SY5Y and B16 cells were extracted in NP-40 lysis buffer (PBS pH 7.4, 1% protease inhibitor coctail and 1% Triton X-100). The cell extracts were then constantly agitated at 4° C. for 2 h. The cell extracts were centrifuged at 12000×g for 30 min and supernatants were saved. After the protein concentration measurement 15 μg of total protein was separated by sodium dodecyl sulfate-polyacrylamide gel electrophoresis (SDS-PAGE) under reducing conditions according to the method of Laemmli. Proteins were blotted onto PVDF membrane. The blot was incubated overnight at 4° C. in the presence of mouse α-Hsp25, α-Hsp70, α-Hsp60 és α-Hsp90 monoclonal antibodies diluted in PBS. Then, the membrane was washed three times in PBS-0.05% Tween and incubated for 1 h in peroxidase-conjugated anti-mouse IgG antibody diluted 1:50000 in PBS containing 3% non-fat dry milk. The immune complexes were detected with chemo-luminescent substrate of peroxidase according to the supplier's instructions. Images taken from the membranes were analyzed using AlphaEase FC software.

Row | SMILES | Other in vitro effects
1 | COC(=O)C1=C(C)N(C)C(C)=C(C(=O)OC)C1c1ccc(Cl)cc1 [Example 4, Dimethyl 1,2,6-trimethyl-4-(4-chlorophenyl)-1,4-dihydropyridine-3,5-dicarboxylate] | 0
2 | COC(=O)C1=C(C)N(C)C(C)=C(C(=O)OC)C1c1ccc(OC)cc1 [Example 6, Dimethyl 1,2,6-trimethyl-4-(4-methoxyphenyl)-1,4-dihydropyridine-3,5-dicarboxylate] | 0
3 | COC(=O)C1=C(CCN2CCN(C)CC2)N(C)C(CCN2CCN(C)CC2)=C(C(=O)OC)C1c1ccc(C(F)(F)F)cc1 [Example 16, Dimethyl 1-methyl-2,6-bis-[2-(4-methyl-piperazin-1-yl)-ethyl]-4-(4-trifluoromethylphenyl)-1,4-dihydropyridine-3,5-dicarboxylate hydrochloride] | 0
4 | COC(=O)C1=C(C)N(C)C(CN2CCc3ccccc3C2)=C(C(=O)OC)C1c1ccc(C(F)(F)F)cc1.Cl (centres unmarked) [Example 49, Dimethyl 2-(1,2,3,4-tetrahydro-1H-isoquinolin-2-ylmethyl)-1,6-dimethyl-4-(4-trifluoromethylphenyl)-1,4-dihydropyridine-3,5-dicarboxylate hydrochloride] | 0

tested on: not given; test: not given

Row | SMILES | melting point [°C]
5 | COC(=O)C1=C(C)N(C)C(CCN2CCOCC2)=C(C(=O)OC)C1c1ccc(C(F)(F)F)cc1.Cl (centres unmarked) | 188 to 193
6 | COC(=O)C1=C(C)N(C)C(CCN2CCOCC2)=C(C(=O)OC)C1c1ccccc1Cl.Cl (centres unmarked) | 171 to 173
7 | COC(=O)C1=C(C#N)N(C)C(CN2CCCC2)=C(C(=O)OC)C1c1ccc(C(F)(F)F)cc1.Cl (centres unmarked) | 173 to 175
8 | COC(=O)C1=C(CCN2CCN(C)CC2)N(C)C(CCN2CCN(C)CC2)=C(C(=O)OC)C1c1ccc(C(F)(F)F)cc1 (as salt: hydrochloride) [Example 16, Dimethyl 1-methyl-2,6-bis-[2-(4-methyl-piperazin-1-yl)-ethyl]-4-(4-trifluoromethylphenyl)-1,4-dihydropyridine-3,5-dicarboxylate hydrochloride] | 195 to 200
9 | COC(=O)C1=C(CCN(C)C)N(C)C(CCN(C)C)=C(C(=O)OC)C1c1ccccc1Cl (as salt: hydrochloride) [Example 22, Dimethyl 4-(2-chorophenyl)-2,6-bis-(2-dimethylaminoethyl)-1-methyl-1,4-dihydropyridine-3,5-dicarboxylate dihydrochloride] | 241 to 245
10 | COC(=O)C1=C(CCN(C)C)N(C)C(CCN2CCOCC2)=C(C(=O)OC)C1c1ccc(C(F)(F)F)cc1 (centres unmarked) (as salt: hydrochloride) [Example 31, Dimethyl 2-(2-dimethylamino-ethyl)-1-methyl-6-(2-morpholin-1-yl-ethyl)-4-(4-trifluoromethylphenyl)-1,4-dihydropyridine-3,5-dicarboxylate dihydrochloride] | 247 to 248
11 | COC(=O)C1=C(CCN(C)C)N(C)C(CCN2CCc3cc(OC)c(OC)cc3C2)=C(C(=O)OC)C1c1ccc(C(F)(F)F)cc1 (centres unmarked) (as salt: hydrochloride) [Example 42, Dimethyl 2-[2-(6,7-dimethoxy-1,2,3,4-tetrahydroisoquinolin-2-yl)-ethyl]-6-(2-dimethylamino-ethyl)-1-methyl-4-(4-trifluoromethylphenyl)-1,4-dihydropyridine-3,5-dicarboxylate dihydrochloride] | 210 to 211
12 | COC(=O)C1=C(C)N(C)C(C)=C(C(=O)OC)C1c1ccc(Cl)cc1 [Example 4, Dimethyl 1,2,6-trimethyl-4-(4-chlorophenyl)-1,4-dihydropyridine-3,5-dicarboxylate] | 179 to 180
13 | COC(=O)C1=C(C)N(C)C(C)=C(C(=O)OC)C1c1ccc(C)cc1 [Example 5, Dimethyl 1,2,6-trimethyl-4-(4-methylphenyl)-1,4-dihydropyridine-3,5-dicarboxylate] | 176 to 178
14 | COC(=O)C1=C(C)N(C)C(C)=C(C(=O)OC)C1c1ccc(OC)cc1 [Example 6, Dimethyl 1,2,6-trimethyl-4-(4-methoxyphenyl)-1,4-dihydropyridine-3,5-dicarboxylate] | 163 to 164
15 | COC(=O)C1=C(C)N(C)C(C)=C(C(=O)OC(C)(C)C)C1c1ccc(C(F)(F)F)cc1 (centres unmarked) [Example 29, 1,2,6-Trimethyl-4-(4-trifluoromethylphenyl)-1,4-dihydropyridine-3,5-dicarboxylic acid 3-tert-butyl ester 5-methyl ester] | 128 to 130
16 | COC(=O)C1=C(C)N(C)C(C)=C(C(=O)O)C1c1ccc(C(F)(F)F)cc1 (centres unmarked) [Example 35, 1,2,6-Trimethyl-4-(4-trifluoromethylphenyl)-1,4-dihydropyridine-3,5-dicarboxylic acid monomethyl ester] | 150 to 155
17 | CC1=C(C(=O)O)C(c2ccc(C(F)(F)F)cc2)C(C(=O)O)=C(C)N1C [Example 36, 1,2,6-Trimethyl-4-(4-trifluoromethylphenyl)-1,4-dihydropyridine-3,5-dicarboxylic acid] | 152 to 153
18 | COC(=O)C1=C(C)N(C)C(CN2CCc3ccccc3C2)=C(C(=O)OC)C1c1ccc(C(F)(F)F)cc1.Cl (centres unmarked) [Example 49, Dimethyl 2-(1,2,3,4-tetrahydro-1H-isoquinolin-2-ylmethyl)-1,6-dimethyl-4-(4-trifluoromethylphenyl)-1,4-dihydropyridine-3,5-dicarboxylate hydrochloride] | 175 to 177

More lines, now with the values ahead:

Row | melting point [°C] | SMILES
19 | 218 to 219 | COC(=O)C1=C(C)N(C)C(CCN2CCCC2)=C(C(=O)OC)C1c1ccc(C(F)(F)F)cc1.Cl (centres unmarked)
20 | 202 to 203 | COC(=O)C1=C(C)N(C)C(CCN2CCc3ccccc3CC2)=C(C(=O)OC)C1c1ccc(C(F)(F)F)cc1.O=C(O)/C=C/C(=O)O (centres unmarked)
21 | 182 to 185 | COC(=O)C1=C(C)N(C)C(CN2CCCC2)=C(C(=O)OC)C1c1ccc(C(F)(F)F)cc1.Cl (centres unmarked)
22 | 190 to 192 | COC(=O)C1=C(C)N(C)C(CN2CCCCC2)=C(C(=O)OC)C1c1ccc(C(F)(F)F)cc1.Cl (centres unmarked)
23 | 215 to 216 | COC(=O)C1=C(C#N)N(C)C(CCN(C)C)=C(C(=O)OC)C1c1ccc(C(F)(F)F)cc1.Cl (centres unmarked)
24 | 210 to 215 | COC(=O)C1=C(CCN2CCN(C)CC2)N(C)C(CCN2CCN(C)CC2)=C(C(=O)OC)C1c1ccccc1Cl (as salt: hydrochloride)
25 | 188 to 193 | COC(=O)C1=C(CCN2CCCC2)N(C)C(CCN2CCCC2)=C(C(=O)OC)C1c1ccccc1Cl (as salt: hydrochloride) [Example 19, Dimethyl 4-(2-chlorophenyl)-1-methyl-2,6-bis-(2-pyrrolidin-1-yl-ethyl)-1,4-dihydropyridine-3,5-dicarboxylate dihydrochloride]
26 | 261 to 265 | COC(=O)C1=C(CCN(C)C)N(C)C(CCN(C)C)=C(C(=O)OC)C1c1cc(F)cc(F)c1 (as salt: hydrochloride) [Example 25, Dimethyl 4-(3,5-Difluorophenyl)-2,6-bis-(2-dimethylaminoethyl)-1-methyl-1,4-dihydropyridine-3,5-dicarboxylate dihydrochloride]
27 | 247 to 249 | COC(=O)C1=C(CCN(C)C)N(C)C(CCN2CCCCC2)=C(C(=O)OC)C1c1ccc(C(F)(F)F)cc1 (centres unmarked) (as salt: hydrochloride) [Example 30, Dimethyl 2-(2-dimethylamino-ethyl)-1-methyl-6-(2-piperidin-1-yl-ethyl)-4-(4-trifluoromethylphenyl)-1,4-dihydropyridine-3,5-dicarboxylate dihydrochloride]
28 | 154 to 155 | COC(=O)C1=C(C)N(C)C(C)=C(C(=O)OC)C1c1ccccc1Cl [Example 18, Dimethyl 4-(2-chlorophenyl)-1,2,6-trimethyl-1,4-dihydropyridine-3,5-dicarboxylate]
29 | 92 to 94 | COC(=O)C1=C(C)N(C)C(C)=C(C(=O)OC(C)C)C1c1ccc(C(F)(F)F)cc1 (centres unmarked) [Example 28, 1,2,6-Trimethyl-4-(4-trifluoromethylphenyl)-1,4-dihydropyridine-3,5-dicarboxylic acid 3-isopropyl ester 5-methyl ester]
